Where two headings read alike, the source gives them in different places. Primed or numbered codes have the meaning given here. * marks the point of attachment. 10Ca‑PXL = paclitaxel conjugated at C10 via a carbamate; 10Ca‑PXL″ = paclitaxel attached at C10 via carbamate; PEG(13) = PEG13 linker; Piv = CC(C)(C)C(=O)*; OBn = c1ccc(CO*)cc1
Tests used:
[1] = system: tubulin; assay: Fluorescence-based tubulin polymerization assay (MPA; enhancement for paclitaxel, inhibition for vinblastine); assay type: biochemical
In short: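 Tubulin polymerisation was followed by fluorescence (ex 360/em 405 nm) with 1 mg/ml BSA in all assays. For paclitaxel conjugates, glycerol was omitted. Parent drugs and conjugates were tested at 0.75, 1.5, 3 and 10 micromolar final, and values come from the linear range of the dose responses.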

[2] = system: MCF-7 breast carcinoma; assay: Cytotoxicity assay (monolayer), MCF-7; assay type: cell-based; conditions: MCF7, ML (monolayer), read-out: MCF7 (EC50 Ave) ML;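 also: cells treated 72 h with 6-8 compound doses versus DMSO vehicle controls, EC50 fitted by 4-parameter dose-response curves, averaged across all tests and lots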
[3] = system: HT-29 colorectal carcinoma; assay: Cytotoxicity assay (monolayer), HT-29; assay type: cell-based; conditions: HT29, ML (monolayer), read-out: HT29 (EC50 Ave) ML;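 also: monolayer cultures tested in triplicate, compound exposure for three days against DMSO vehicle controls, EC50 fitted from dose-response curves and averaged across all tests and lots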
[4] = system: HUVEC; assay: Cytotoxicity assay (monolayer), HUVEC; assay type: cell-based; conditions: ML (monolayer), read-out: HUVEC (EC50 Ave) ML
[5] = system: Normal human foreskin fibroblasts (HFF); conditions: read-out: HFF (EC50 Ave) ML; HFF, ML (monolayer)
[6] = system: MCF-7 cells; conditions: read-out: MCF7 (EC50 Ave) SA; MCF7, SA (soft agar)
[7] = system: HT-29 cells; conditions: read-out: HT29 (EC50 Ave) SA; HT29, SA (soft agar)
[8] = target: T1, Akt (Homo sapiens, UniProt P31749); assay: Akt kinase assay (PKLight ATP utilization, substrate phosphorylation as % of parent peptide); assay type: biochemical; set-up: purchased Upstate (Charlottesville, Va.) 14-276
Procedure: Another test may involve monitoring the consumption of ATP. For example, ATP concentrations at time 0 or after 4 hour incubation may be monitored by luciferase reaction (PKLight kit obtained from Cambrex Corporation, One Meadowlands Plaza, East Rutherford, N.J. 07073), which generate a luminescence readout in the presence of ATP. Assays are initiated by mixing a kinase and a peptide in the presence of 40 μM ATP. After 4 hour of incubation at 30° C., PKLight reagent is added and mixed well, and luminescence readout measured. The rate of peptide phosphorylation is then directly related to the rate of decrease in the observed luminescence. Based on the first test, linkers of appropriate lengths and peptides with an effective amount of kinase activity which may be expected to be retained in the drug conjugate may be found.
Human Src (#14-326) and Akt (#14-276) kinases were purchased from Upstate (Charlottesville, Va.). Kinase reactions were carried out in 50 μl kinase reaction cocktail (25 mM Tris-HCl, pH 7.5, 5 μM β-glycerophosphate, 2 mM DTT, 0.1 mM Na3VO4, 10 mM MgCl2, 1 mg/ml BSA, […], 0.5 to 1.0 units enzyme). Substrates (peptide or drug-peptide conjugate in […]) were added (25, 50 and 100 μM) and the reaction was incubated for 2-5 hours at 30° C. PKLight reagent (23 μl) (Cambrex BioSciences, Rockland, Me.) was mixed with […] of the above kinase reaction and ATP utilization relative to no substrate and no ATP controls was determined by measuring luminescence with a SpectraMax Gemini EM plate reader (Molecular Devices, Sunnyvale, Calif.). Peptide substrates for Src and Akt have been described. For examples, see Lou et al. Letters in Peptide Science, 2, 289-296 (1995); Lou et al. Bioorganic & Medicinal Chemistry, 4, 677-682 (1996); Alessi et al. FEBS Letters, 399, 333-338 (1996). Substrate phosphorylation potential was determined from the linear portion of the substrate concentration dose response as a percentage of the activity observed with the parent peptide used for drug conjugation.

[9] = target: T1, Akt; conditions: Akt peptide substrates, Alessi et al. 1996; cited from earlier work
[10] = system: Normal human foreskin fibroblasts (HFF); assay: cells; conditions: Fibroblast, read-out: HFF (EC50 Ave) ML
[11] = system: MCF-7 cells; assay: cells; conditions: Homo sapiens, MCF7, read-out: MCF7 (EC50 Ave) SA
[12] = system: HT-29 cells; assay: cells; conditions: Homo sapiens, HT-29, read-out: HT29 (EC50 Ave) SA

T1 sequence (P31749 whole entry): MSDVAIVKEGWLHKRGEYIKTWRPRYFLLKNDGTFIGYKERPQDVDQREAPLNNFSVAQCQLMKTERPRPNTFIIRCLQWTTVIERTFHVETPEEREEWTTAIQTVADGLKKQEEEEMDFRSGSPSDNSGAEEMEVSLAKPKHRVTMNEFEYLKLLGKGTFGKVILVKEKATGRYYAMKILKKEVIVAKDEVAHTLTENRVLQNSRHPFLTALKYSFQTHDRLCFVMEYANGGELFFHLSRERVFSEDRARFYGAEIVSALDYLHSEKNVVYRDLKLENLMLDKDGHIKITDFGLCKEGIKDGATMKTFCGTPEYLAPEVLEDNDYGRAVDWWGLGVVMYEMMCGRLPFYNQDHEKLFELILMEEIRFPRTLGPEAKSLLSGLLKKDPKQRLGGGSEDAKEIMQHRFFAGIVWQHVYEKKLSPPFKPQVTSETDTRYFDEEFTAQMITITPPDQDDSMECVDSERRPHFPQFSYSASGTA

| Molecule | Ave. MPA Act. [1] | EC50 [2] [nM] | EC50 [3] [nM] | EC50 [4] [nM] | EC50 [5] [nM] | EC50 [6] [nM] | EC50 [7] [nM] | Ave. Akt Kinase Act. [8] | specificity with respect to related MAP kinase and S6 kinase [9] | EC50 ([2]; Homo sapiens) [nM] | EC50 ([3]; Homo sapiens, HT-29) [nM] | EC50 ([4]; Homo sapiens) [nM] | EC50 [10] [nM] | EC50 [11] [nM] | EC50 [12] [nM] |
| --- | --- | --- | --- | --- | --- | --- | --- | --- | --- | --- | --- | --- | --- | --- | --- |
| Pv-GRPRTSSFAE(Bzl)G-PEG(13)-10Ca-PXL (Piv-GRPRTSSFAE(OBn)G-{PEG(13)-10Ca‑PXL″}) | C (C>80) | > 100 | > 100 | > 100 | > 100 | > 100 | > 100 | C (C>40) |  |  |  |  |  |  |  |
| CBz-GRPRTSSFAE(Bzl)G-3Am-VBL | B (B=50-80) | 20 to 100 | 20 to 100 | < 20 | 20 to 100 | 20 to 100 | 20 to 100 | C (C>40) |  |  |  |  |  |  |  |
| CBz-RPRTSSF-PEG(13)-10Ca-PXL x (N-CBz; PEG(13) linker; paclitaxel conjugate; salt) | C (C>80) | > 100 | > 100 | > 100 | > 100 | > 100 | > 100 | C (C>40) |  |  |  |  |  |  |  |
| Pv-GRPRAAAFAEG-PEG(13)-10Ca-PXL (Piv-GRPRAAAFAEG-{PEG(13)-10Ca‑PXL}; also: 2 TFA salt) | C (C>80) | > 100 | > 100 | > 100 | > 100 | 20 to 100 | 20 to 100 | C (C>40) |  |  |  |  |  |  |  |
| RPRAATF [peptide substrate for Akt from the literature] |  |  |  |  |  |  |  |  | exhibit specificity |  |  |  |  |  |  |
| Ac-RPRTSSF-PEG(13)-10Ca-PXL (N-acetyl; PEG(13) linker; paclitaxel conjugate) | C (C>80) | > 100 | > 100 | > 100 | > 100 | > 100 | 20 to 100 | C (C>40) |  |  |  |  |  |  |  |
| CC[C@]1(O)C[C@@H]2CN(CCc3c([nH]c4ccccc34)[C@@](C(=O)OC)(c3cc4c(cc3OC)N(C)[C@H]3[C@@](O)(C(=O)OC)[C@H](OC(C)=O)[C@]5(CC)C=CCN6CC[C@]43[C@@H]65)C2)C1 [Vinblastine (VBL)] | C (C>80) |  |  |  |  |  |  |  |  | < 20 | < 20 | < 20 | < 20 | < 20 | < 20 |
